Counter-ions that a name gives are not always drawn.
Biological target: T1, Smoothened (SMO) (Mus musculus, UniProt P56726)
T1 construct: C3H10T1/2 cells (ATCC #CCL-226) were split and seeded; endogenous in cells; host or cells: C3H10T1/2 (ATCC #CCL-226)
Assay: Smoothened (SMO)/Sonic Hedgehog (SHh) Transient Transcriptional Activation Assay (Gli-luciferase reporter in C3H10T1/2 cells)
Assay type: cell-based, murine
Conditions: C3H 10T1/2, 2 μM compound; transfected C3H10T1/2 cells, recombinant human SHh 250 ng/mL, 20 hours, luciferase readout; read-out: SMO CELL % INHIBITION @ 2 μM
How it was run: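 C3H10T1/2 cells transiently transfected with a murine Gli-responsive firefly luciferase reporter plus pEGFP were serum-starved 20 h in 0.5% calf serum. Compound (2 μM to 2 nM final) was added with recombinant human SHh at 250 ng/mL final for 20 h at 37 °C. Read-out was Dual-Glo luminescence.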

T1 sequence (P56726 33-793): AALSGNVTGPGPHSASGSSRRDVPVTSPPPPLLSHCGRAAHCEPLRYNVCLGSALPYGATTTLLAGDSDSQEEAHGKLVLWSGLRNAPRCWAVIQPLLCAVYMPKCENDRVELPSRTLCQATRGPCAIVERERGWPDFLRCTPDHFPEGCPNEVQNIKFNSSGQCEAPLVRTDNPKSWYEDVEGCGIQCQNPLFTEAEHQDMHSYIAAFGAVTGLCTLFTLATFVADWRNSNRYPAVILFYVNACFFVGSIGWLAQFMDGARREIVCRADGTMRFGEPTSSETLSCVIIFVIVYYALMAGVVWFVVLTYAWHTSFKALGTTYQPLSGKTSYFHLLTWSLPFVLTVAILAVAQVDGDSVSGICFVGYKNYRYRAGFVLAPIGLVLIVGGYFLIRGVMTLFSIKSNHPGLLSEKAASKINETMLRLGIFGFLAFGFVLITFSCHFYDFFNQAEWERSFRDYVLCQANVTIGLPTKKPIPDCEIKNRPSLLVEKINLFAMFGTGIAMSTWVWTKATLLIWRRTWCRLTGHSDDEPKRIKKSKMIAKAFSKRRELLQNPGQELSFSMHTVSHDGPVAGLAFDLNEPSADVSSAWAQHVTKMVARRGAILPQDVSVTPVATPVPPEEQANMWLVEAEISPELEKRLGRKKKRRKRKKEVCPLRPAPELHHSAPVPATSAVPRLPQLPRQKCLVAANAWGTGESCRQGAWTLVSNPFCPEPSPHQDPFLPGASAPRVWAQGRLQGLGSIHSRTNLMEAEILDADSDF

| SMILES | inhibition at 2 µM [%] |
| --- | --- |
| COc1ccc(NC(=O)N[C@@H]2CCN(C)[C@@H](c3nc4cc(C(F)(F)F)ccc4[nH]3)C2)cn1 [Example 135, 1-(6-methoxypyridin-3-yl)-3-{(2R,4R)-1-methyl-2-[5-(trifluoromethyl)-1H-benzimidazol-2-yl]piperidin-4-yl}urea hydrochloride] | 104 |
| CN1CC[C@@H](NC(=O)c2cc(-c3ccncc3)n[nH]2)C[C@@H]1c1nc2ccccc2[nH]1 [Example 74, N-[(2R,4R)-2-(1H-benzimidazol-2-yl)-1-methylpiperidin-4-yl]-3-pyridin-4-yl-1H-pyrazole-5-carboxamide hydrochloride] | 101 |
| CN1CC[C@@H](NC(=O)Nc2cccc(C#N)c2)C[C@@H]1c1nc2ccccc2[nH]1 [Example 88, 1-[(2R,4R)-2-(1H-benzimidazol-2-yl)-1-methylpiperidin-4-yl]-3-(3-cyanophenyl)urea hydrochloride] | 92.1 |
| Cc1ccc(NC(=O)N[C@@H]2CCN(C3CCC3)[C@@H](c3nc4ccccc4[nH]3)C2)cn1 [Example 150, 1-[(2R,4R)-2-(1H-benzimidazol-2-yl)-1-cyclobutyl-piperidin-4-yl]-3-(6-methylpyridin-3-yl)urea triflouroacetate] | 106 |
| CN1C[C@H](NC(=O)Nc2ccc(Cl)c(C(F)(F)F)c2)C[C@H]1c1nc2ccc(F)cc2[nH]1 [Example 14, 1-[4-chloro-3-(trifluoromethyl)phenyl]-3-[(3R,5S)-5-(6-fluoro-1H-benzimidazol-2-yl)-1-methylpyrrolidin-3-yl]urea] | 81.8 |
| CC(C)(C)OC(=O)N1C[C@@H](NC(=O)Nc2ccc(Cl)c(C(F)(F)F)c2)C[C@H]1c1nc2ccccc2[nH]1 [Example 8, tert-butyl (2S,4S)-2-(1H-benzimidazol-2-yl)-4-[({[4-chloro-3-(trifluoromethyl)phenyl]amino}carbonyl)amino]pyrrolidine-1-carboxylate] | 57.1 |
| Cc1ccc2nc([C@@H]3C[C@@H](NC(=O)Nc4ccc(Cl)c(C(F)(F)F)c4)CN3C)[nH]c2c1 [Example 17, 1-[4-chloro-3-(trifluoromethyl)phenyl]-3-[(3R,5S)-1-methyl-5-(6-methyl-1H-benzimidazol-2-yl)pyrrolidin-3-yl]urea] | 63.2 |
| CN(C)c1ccc(NC(=O)N[C@@H]2CCN(C)[C@@H](c3nc4ccccc4[nH]3)C2)cc1 [Example 56, 1-[(2R,4R)-2-(1H-benzimidazol-2-yl)-1-methylpiperidin-4-yl]-3-[4-(dimethylamino)phenyl]urea hydrochloride] | 104 |
| CN1CC[C@@H](NC(=O)Nc2ccc(C#N)nc2)C[C@@H]1c1nc2ccccc2[nH]1 [Example 54, 1-[(2R,4R)-2-(1H-benzimidazol-2-yl)-1-methylpiperidin-4-yl]-3-(6-cyanopyridin-3-yl)urea hydrochloride] | 105 |
| CN1CC[C@H](NC(=O)c2ccc3c(c2)OCCO3)C[C@@H]1c1nc2ccccc2[nH]1 [Example 94, N-[(2R,4S)-2-(1H-benzimidazol-2-yl)-1-methylpiperidin-4-yl]-2,3-dihydro-1,4-benzodioxine-6-carboxamide hydrochloride] | 79.7 |
| CN1CC[C@@H](NC(=O)Cn2ncc3ccccc32)C[C@@H]1c1nc2ccccc2[nH]1 [Example 109, N-[(2R,4R)-2-(1H-benzimidazol-2-yl)-1-methylpiperidin-4-yl]-2-(1H-indazol-1-yl)acetamide trifluoroacetate] | 85.2 |
| CN1CC[C@@H](NC(=O)Nc2cccnc2)C[C@@H]1c1nc2ccccc2[nH]1 [Example 80, 1-[(2R,4R)-2-(1H-benzimidazol-2-yl)-1-methylpiperidin-4-yl]-3-pyridin-3-ylurea hydrochloride] | 98 |

Results, then the compound that gave them:

| inhibition at 2 µM [%] | SMILES |
| --- | --- |
| 107 | CN1CC[C@@H](NC(=O)c2ccc3c(c2)OCCO3)C[C@@H]1c1nc2ccc(Cl)cc2[nH]1 [Example 34, N-[(2R,4R)-2-(6-chloro-1H-benzimidazol-2-yl)-1-methylpiperidin-4-yl]-2,3-dihydro-1,4-benzodioxine-6-carboxamide hydrochloride] |
| 101 | CN1CC[C@@H](NC(=O)c2ccc3c(c2F)OCCO3)C[C@@H]1c1nc2cc(Cl)ccc2[nH]1 [Example 142, N-[(2R,4R)-2-(5-chloro-1H-benzimidazol-2-yl)-1-methylpiperidin-4-yl]-5-fluoro-2,3-dihydro-1,4-benzodioxine-6-carboxamide triflouroacetate] |
| 105 | COc1ccc(NC(=O)N[C@@H]2CCN(C)[C@@H](c3nc4cc(C#N)ccc4[nH]3)C2)cn1 [Example 134, 1-[(2R,4R)-2-(5-cyano-1H-benzimidazol-2-yl)-1-methylpiperidin-4-yl]-3-(6-methoxypyridin-3-yl)urea hydrochloride] |
| 65.4 | COc1ccc(C(=O)N[C@@H]2CCN(C)[C@@H](c3nc4ccccc4[nH]3)C2)cc1F [Example 117, N-[(2R,4R)-2-(1H-benzimidazol-2-yl)-1-methylpiperidin-4-yl]-3-fluoro-4-methoxybenzamide trifluoroacetate] |
| 88.2 | O=C(N[C@@H]1CCN(CC2CC2)[C@@H](c2nc3ccccc3[nH]2)C1)c1ccc2c(c1)OCCO2 [Example 89, N-[(2R,4R)-2-(1H-benzimidazol-2-yl)-1-(cyclopropyl-methyl)piperidin-4-yl]-2,3-dihydro-1,4-benzodioxine-6-carboxamide hydrochloride] |
| 83.5 | COc1ccc2[nH]c([C@H]3C[C@H](NC(=O)c4ccc5c(c4F)OCCO5)CCN3C)nc2c1 [Example 143, 5-fluoro-N-[(2R,4R)-2-(5-methoxy-1H-benzimidazol-2-yl)-1-methylpiperidin-4-yl]-2,3-dihydro-1,4-benzodioxine-6-carboxamide triflouroacetate] |
| 69.5 | CN1CC[C@@H](NC(=O)c2cc3c(cc2Cl)OCCO3)C[C@@H]1c1nc2ccccc2[nH]1 [Example 147, N-[(2R,4R)-2-(1H-benzimidazol-2-yl)-1-methylpiperidin-4-yl]-7-chloro-2,3-dihydro-1,4-benzodioxine-6-carboxamide triflouroacetate] |
| 88.3 | CSc1ccccc1C(=O)N[C@@H]1CCN(C)[C@@H](c2nc3ccccc3[nH]2)C1 [Example 107, N-[(2R,4R)-2-(1H-benzimidazol-2-yl)-1-methylpiperidin-4-yl]-2-(methylthio)benzamide trifluoroacetate] |
| 102 | COc1ccc(NC(=O)N[C@@H]2CCN(C)[C@@H](c3nc4cc(C)ccc4[nH]3)C2)cn1 [Example 137, 1-{6-methoxypyridin-3-yl)-3-[(2R.4R)-1-methyl-2-(5-methyl-1H-benzimidazol-2-yl)piperidin-4-yl]urea hydrochloride] |
| 102 | COc1cc(C(=O)N[C@@H]2CCN(C)[C@@H](c3nc4ccccc4[nH]3)C2)ccc1F [Example 102, N-[(2R,4R)-2-(1H-benzimidazol-2-yl)-1-methylpiperidin-4-yl]-4-fluoro-3-methoxybenzamide trifluoroacetate] |
| 106 | CN1CC[C@@H](NC(=O)c2ccc3c(c2Cl)OCCO3)C[C@@H]1c1nc2cc(Cl)ccc2[nH]1 [Example 145, 5-chloro-N-[(2R,4R)-2-(5-chloro-1H-benzimidazol-2-yl)-1-methylpiperidin-4-yl]-2,3-dihydro-1,4-benzodioxine-6-carboxamide triflouroacetate] |
